10 molecules from patent US4440772A, “Acid addition salts of dextrorotatory ergot alkaloids, a process for the preparation thereof as well as their use as medicines” (priority 1978, dated 1984) can be followed below.

Data set [1] can be described thus: acute toxicity (LD50), intraperitoneal administration. Particulars: mouse, in vivo, ip, male mice, 24 hours after administration. As to the method:
The volume of injected solution was 0.01 ml/g of body weight. In the following Table I acute toxicity of dextrorotatory ergot alkaloids in comparison with levorotatory ergot alkaloids 24 hours after the intraperitoneal administration is given.

Data set [2] concerns spontaneously hypertensive rats. The data set is described as follows: effect on arterial pressure of spontaneously hypertensive rats. Format: in vivo, rats (variety Okamoto Aoki F32). The method, then:
For the experiment groups of 10 spontaneously hypertensive rats (variety Okamoto Aoki F32) of both sexes, weighing from 200 to 250 g, were used. The acid addition salts of said dextrorotatory ergot alkaloids were administered intraperitoneally in doses of 50 mcg/kg of body weight and systolic blood pressure was measured on the rats' tails by means of plethysmographic method (K. Okamoto and K. Aoki, Jap. Circulat. J. 27, 1963, 282).

Data set [3] has as its system isolated heart of a guinea pig. The data set is described as follows: effect on isolated heart of a guinea pig, modified Langendorff's method. The text has this: The effect of dextrorotatory ergot alkaloids according to the invention on heart in vitro was examined on isolated heart of a guinea pig by the modified Langendorff's method (Zalar et al., Poll. Chim. Farmac. 114, 1975, 146). Alkaloids were infused by an apparatus for slow infusion (B. Melsungen).

Data set [4] deals with arrhythmias induced by adrenalin. The data set can be described thus: effect on arrhythmia induced by adrenalin. Format: in vivo. Particulars: 2.0 mg/kg intraperitoneally, guinea pigs, adrenalin 0.02 mg/kg intravenously. As to the method:
For experiments, guinea pigs of both sexes, weighing from 400 to 550 g, were used. The narcotized animals (urethane 1.6 g/kg of body weight, intraperitoneally) were at first intravenously administered adrenalin (0.02 mg/kg) and then dextrorotatory ergot alkaloids. 1 hour and 1.5 hours after the administration of dextrorotatory ergot alkaloids, adrenalin was again administered intravenously (0.02 mg/kg) and the presence as well as duration of arrhythmias was ascertained.

In data set [5] the test system is alpha-adrenergic receivers of the dilatating pupil muscle. The data set is described as follows: effect on the function of the pupil (mydriatic effect, Polewka's method). Format: in vivo. Particulars: 5 mg/kg intravenously, mouse. As to the method:
The phenomenon of mydriasis induced by ergot alkaloids results from the stimulation of alpha-adrenergic receivers of the dilatating pupil muscle (Z. Votava et al., Arch. int. Pharmacodin. 45, 1958, 114).
The mydriatic effect of dextrorotatory ergot alkaloids administered intravenously was determined with a monocular measuring magnifying glass by Polewka's method (A. R. Turner, Screening Methods in Pharmacology, 1965, p. 174 ff.).
The size of the pupil was measured at first before the administration of the substance and then 15, 30 and 60 minutes after intravenous administration of alkaloids into the mouse tail (dose 5 mg/kg of body weight).

The subject of data set [6] is smooth muscles of blood vessels. The data set is described as follows: effect on blood pressure drop in rats with cut spinal cord. The data set is classed as in vivo, rats (variety Wistar). Particulars: for duration of long-duration hypertension: acid addition salts, 1.5 mg/kg of body weight; for vasoconstrictory effect: contraction of smooth muscles of blood vessels. The text has this:
Rats (variety Wistar) in urethane narcosis were cut their spinal cord in the region of the second cervical vertebra and connected to an artificial breathing apparatus (B. Melsungen). By this intervention the central regulation of blood pressure was eliminated. In so treated animals blood pressure dropped for about 50 mm Hg. The experiment was supposed to show whether the examined substances directly affected the smooth muscles of blood vessels.

The mark [7] stands for this setting: control, spontaneously hypertensive rats.
Setting [8] is: day 2, 50 mcg/kg intraperitoneally.
[9] abbreviates: day 4, 50 mcg/kg intraperitoneally.
Where [10] appears, read: day 6, 50 mcg/kg intraperitoneally.
The mark [11] stands for this setting: day 8, 50 mcg/kg intraperitoneally.
[12] abbreviates: day 10, 50 mcg/kg intraperitoneally.

Structures can show the parent of a compound that is named as a salt. Where two headings read alike, the source gives them in different places. A value given as a limit tells only on which side of the number the result lay.

In general, LD50 refers to the dose at which mortality reaches 50%. Higher therefore signals lower toxicity. Take `CC(C)[C@H]1C(=O)N2CCC[C@H]2[C@]2(O)O[C@](NC(=O)[C@H]3C=C4c5cccc6[nH]cc(c56)C[C@H]4N(C)C3)(C(C)C)C(=O)N12` [ergocorninine methanesulfonate, Ergocorninine methanesulfonate]: the 50% lethal dose (LD50) at 24 h in data set [1] is more than 520 mg/kg. Moreover, the Systolic blood pressure in data set [2] (setting [7]) is reported as 190 mm Hg; in data set [2] (setting [8]), 182 mm Hg; in data set [2] (setting [9]), 176 mm Hg; in data set [2] (setting [10]), 166 mm Hg; in data set [2] (setting [11]), 160 mm Hg; in data set [2] (setting [12]), 161 mm Hg. Also, the inhibition at 4.9 µg/g in data set [3] (Cavia porcellus, dose 4.90 mcg/g of heart, read-out: (-)chronotropic (maximum)) is 11%. In data set [4], the “Shortening of arrhythmia duration” value is recorded as 46 % of control. Further, the “The increase of pupil widening in comparison with the control” value (“The increase of pupil widening” below) worked out at 52.7% in data set [5] (after 15 min.), 36.1% in data set [5] (after 30 min.) and 19.4% in data set [5] (after 60 min.).
On to `CC(C)[C@H]1C(=O)N2CCC[C@H]2[C@]2(O)O[C@](NC(=O)[C@H]3C=C4c5cccc6[nH]cc(c56)C[C@H]4N(C)C3)(C(C)C)C(=O)N12` [ergocorninine], for which, in data set [6], the “duration of long-duration hypertension” value is reported as “more than 60 minutes” and the vasoconstrictory effect entry is given as “vasoconstrictory effect”.
Turning to `CC(C)[C@@]1(NC(=O)[C@@H]2C=C3c4cccc5[nH]cc(c45)C[C@H]3N(C)C2)O[C@@]2(O)[C@@H]3CCCN3C(=O)[C@H](Cc3ccccc3)N2C1=O` [ergocristine methanesulfonate, reference compound], the LD50 at 24 h in data set [1] stood at 234 mg/kg.
`CC(C)[C@@]1(NC(=O)[C@H]2C=C3c4cccc5[nH]cc(c45)C[C@H]3N(C)C2)O[C@@]2(O)[C@@H]3CCCN3C(=O)[C@H](Cc3ccccc3)N2C1=O` [ergocristinine methanesulfonate, Ergocristinine methanesulfonate]: the LD50 at 24 h in data set [1] is more than 600 mg/kg. In addition, the Systolic blood pressure is listed as 187 mm Hg in data set [2] (setting [7]); 183 mm Hg in data set [2] (setting [8]); 177 mm Hg in data set [2] (setting [9]); 169 mm Hg in data set [2] (setting [10]); 160 mm Hg in data set [2] (setting [11]); 152 mm Hg in data set [2] (setting [12]). Moreover, the activation at 4.98 µg/g in data set [3] (Cavia porcellus, dose 4.98 mcg/g of heart, read-out: (+)inotropic (maximum)) came out at 9%. In data set [3] (Cavia porcellus, dose 4.98 mcg/g of heart, read-out: (-)chronotropic (maximum)), the inhibition at 4.98 µg/g amounted to 12%. Moreover, the “Shortening of arrhythmia duration” value in data set [4] is reported as 32 % of control. Besides, the “The increase of pupil widening” value was found to be 48.7% in data set [5] (after 15 min.), 10.3% in data set [5] (after 30 min.) and 2.5% in data set [5] (after 60 min.).
On to `CC(C)C[C@H]1C(=O)N2CCC[C@H]2[C@]2(O)O[C@](NC(=O)[C@@H]3C=C4c5cccc6[nH]cc(c56)C[C@H]4N(C)C3)(C(C)C)C(=O)N12` [ergocryptine methanesulfonate, reference compound], for which, in data set [1], the LD50 at 24 h amounted to 188 mg/kg.
`CC(C)C[C@H]1C(=O)N2CCC[C@H]2[C@]2(O)O[C@](NC(=O)[C@H]3C=C4c5cccc6[nH]cc(c56)C[C@H]4N(C)C3)(C(C)C)C(=O)N12` [ergocryptinine methanesulfonate, Ergocryptinine methanesulfonate] came in with an LD50 at 24 h in data set [1] of more than 520 mg/kg. For the same molecule, the Systolic blood pressure in data set [2] (setting [7]) was found to be 189 mm Hg; in data set [2] (setting [8]), 181 mm Hg; in data set [2] (setting [9]), 176 mm Hg; in data set [2] (setting [10]), 168 mm Hg; in data set [2] (setting [11]) it was 161 mm Hg; in data set [2] (setting [12]), 160 mm Hg. Also, the activation at 0.04 µg/g in data set [3] (Cavia porcellus, dose 0.04 mcg/g of heart, read-out: (+)inotropic (maximum)) worked out at 111%. For the same molecule, in data set [3] (Cavia porcellus, dose 0.04 mcg/g of heart, read-out: (-)chronotropic (maximum)), the inhibition at 0.04 µg/g was 21%. Also, the “Shortening of arrhythmia duration” value in data set [4] is listed as 63 % of control. The “The increase of pupil widening” value was found to be 117.4% in data set [5] (after 15 min.), 91.6% in data set [5] (after 30 min.) and 32.2% in data set [5] (after 60 min.).
As to `CC(C)C[C@H]1C(=O)N2CCC[C@H]2[C@]2(O)O[C@](NC(=O)[C@H]3C=C4c5cccc6[nH]cc(c56)C[C@H]4N(C)C3)(C(C)C)C(=O)N12` [ergocryptinine], in data set [6], the “duration of long-duration hypertension” value was “more than 60 minutes” and the vasoconstrictory effect result is “vasoconstrictory effect”. In data set [3] (isolated heart of guinea pig), the “effect on isolated heart (in words)” value was “qualitatively similar to that of ergotamine, ergosine and dihydroergotamine”; the “effect on the strength of heart contraction (in words)” value is listed as “quantitatively greater effect on the strength of heart contraction”. Also, the “mydriatic effect (in words)” value in data set [5] is listed as “strongest mydriatic effect”.
On to `CC(C)C[C@H]1C(=O)N2CCC[C@H]2[C@]2(O)O[C@@](C)(NC(=O)[C@@H]3C=C4c5cccc6[nH]cc(c56)C[C@H]4N(C)C3)C(=O)N12` [ergosine methanesulfonate, reference compound], for which, in data set [1], the LD50 at 24 h is 206 mg/kg. For the same molecule, the Systolic blood pressure was determined as 188 mm Hg in data set [2] (setting [7]); 183 mm Hg in data set [2] (setting [8]); 178 mm Hg in data set [2] (setting [9]); 176 mm Hg in data set [2] (setting [10]); 175 mm Hg in data set [2] (setting [11]); 177 mm Hg in data set [2] (setting [12]). Further, in data set [3] (Cavia porcellus, dose 0.57 mcg/g of heart, read-out: (+)inotropic (maximum)), the activation at 0.57 µg/g came to 49%. In addition, the inhibition at 0.57 µg/g in data set [3] (Cavia porcellus, dose 0.57 mcg/g of heart, read-out: (-)chronotropic (maximum)) turned out to be 17%. Further, the “Shortening of arrhythmia duration” value in data set [4] was 84 % of control. Moreover, the “The increase of pupil widening” value in data set [5] (after 15 min.) worked out at 115.6%; in data set [5] (after 30 min.), 110.5%; in data set [5] (after 60 min.), 39.7%.
Take `CC(C)C[C@H]1C(=O)N2CCC[C@H]2[C@]2(O)O[C@@](C)(NC(=O)[C@H]3C=C4c5cccc6[nH]cc(c56)C[C@H]4N(C)C3)C(=O)N12` [ergosinine methanesulfonate, Ergosinine methanesulfonate]: the LD50 at 24 h in data set [1] stood at 245 mg/kg. Further, the Systolic blood pressure in data set [2] (setting [7]) came to 180 mm Hg; in data set [2] (setting [8]), 169 mm Hg; in data set [2] (setting [9]), 152 mm Hg; in data set [2] (setting [10]) it was 140 mm Hg; in data set [2] (setting [11]), 141 mm Hg; in data set [2] (setting [12]), 138 mm Hg. Also, the activation at 0.65 µg/g in data set [3] (Cavia porcellus, dose 0.65 mcg/g of heart, read-out: (+)inotropic (maximum)) came to 103%. In data set [3] (Cavia porcellus, dose 0.65 mcg/g of heart, read-out: (-)chronotropic (maximum)), the inhibition at 0.65 µg/g came out at 23%. The “Shortening of arrhythmia duration” value in data set [4] is given as 79 % of control. In addition, the “The increase of pupil widening” value in data set [5] (after 15 min.) was found to be 135.0%; in data set [5] (after 30 min.) it was 122.5%; in data set [5] (after 60 min.), 32.5%.
`CN1C[C@H](C(=O)N[C@]2(C)O[C@@]3(O)[C@@H]4CCCN4C(=O)[C@H](Cc4ccccc4)N3C2=O)C=C2c3cccc4[nH]cc(c34)C[C@H]21` [ergotamine tartrate, reference compound]: in data set [1], the median lethal dose (LD50) at 24 h is 412 mg/kg. For the same molecule, the Systolic blood pressure came to 179 mm Hg in data set [2] (setting [7]); 174 mm Hg in data set [2] (setting [8]); 170 mm Hg in data set [2] (setting [9]); 172 mm Hg in data set [2] (setting [10]); 173 mm Hg in data set [2] (setting [11]); 172 mm Hg in data set [2] (setting [12]). Also, the activation at 0.65 µg/g in data set [3] (Cavia porcellus, read-out: (+)inotropic (maximum)) was 75%. The inhibition at 0.65 µg/g in data set [3] (Cavia porcellus, read-out: (-)chronotropic (maximum)) was determined as 30%. In addition, the “Shortening of arrhythmia duration” value in data set [4] is 63 % of control. The “The increase of pupil widening” value in data set [5] (after 15 min.) is 73.3%; in data set [5] (after 30 min.), 22.8%; in data set [5] (after 60 min.), 4.6%.
